Patent US12398098B2, “Waterborne crosslinker composition” (priority 2020, dated 2025)
Read-outs that look alike come from different tables or passages of the source.

Key:
[1] = test system: mouse embryonic stem (mES) reporter cell lines
[2] = test system: Rtkn; settings: mouse
[3] = test system: Rtkn; assay: ToxTracker genotoxicity assay, Rtkn-GFP reporter
[4] = test system: Bscl2; assay: ToxTracker genotoxicity assay, Bscl2-GFP reporter
[5] = With S9 rat liver extract, at 25% cytotoxicity, 3 h exposure and 24 h recovery
[6] = With S9 rat liver extract, at 50% cytotoxicity, 3 h exposure and 24 h recovery
[7] = Without S9 rat liver extract, at 10% cytotoxicity, 24 h exposure
[8] = Without S9 rat liver extract, at 25% cytotoxicity, 24 h exposure
[9] = Without S9 rat liver extract, at 50% cytotoxicity, 24 h exposure
[10] = With S9 rat liver extract, at 10% cytotoxicity, 3 h exposure and 24 h recovery
[11] = Bscl2 and Rtkn, absence and presence of S9

CCC(COC(=O)CCN1CC1C)(COC(=O)CCN1CC1C)COC(=O)CCN1CC1C (centres unmarked) [Comp. Ex. 1, trimethylolpropane tris(2-methyl aziridinepropionate), reference compound]
Genotoxicity test result (overall) [1]: genotoxic

CCCCOCC(CN1CC1C)OC(=O)NCCCCCCn1c(=O)n(CCCCCCNC(=O)OC(COCCCC)CN2CC2C)c(=O)n(CCCCCCNC(=O)OC(COCCCC)CN2CC2C)c1=O (centres unmarked) [Composition 1]
Rtkn GFP reporter induction level [2]: 0.9
Rtkn GFP reporter induction level [3, 5]: 0.8
Rtkn GFP reporter induction level [3, 6]: 0.6
Rtkn GFP reporter induction level [3, 7]: 0.8
Rtkn GFP reporter induction level [3, 8]: 0.8
Rtkn GFP reporter induction level [3, 9]: 0.6
Bscl 2 GFP reporter induction level [4, 6]: 0.9
Genotoxicity test result (overall) [1]: non-genotoxic

CC(CN1CC1C)OC(=O)NCCCCCCn1c(=O)n(CCCCCCNC(=O)OC(C)CN2CC2C)c(=O)n(CCCCCCNC(=O)OC(C)CN2CC2C)c1=O (centres unmarked) [Composition 16]
Rtkn GFP reporter induction level [3, 10]: 1.2
Rtkn GFP reporter induction level [3, 5]: 1.1
Rtkn GFP reporter induction level [3, 6]: 0.9
Rtkn GFP reporter induction level [3, 7]: 1.2
Rtkn GFP reporter induction level [3, 8]: 1.2
Rtkn GFP reporter induction level [3, 9]: 1.4
Bscl 2 GFP reporter induction level [4, 10]: 1.2
Bscl 2 GFP reporter induction level [4, 5]: 1.3
Bscl 2 GFP reporter induction level [4, 6]: 1.2
Bscl 2 GFP reporter induction level [4, 7]: 1.2
Bscl 2 GFP reporter induction level [4, 8]: 1.3
Bscl 2 GFP reporter induction level [4, 9]: 1.3
Genotoxicity test result (overall) [1]: non-genotoxic

CCCCC(CC)COCC(CN1CC1C)OC(=O)NCCCCCCn1c(=O)n(CCCCCCNC(=O)OC(COCC(CC)CCCC)CN2CC2C)c(=O)n(CCCCCCNC(=O)OC(COCC(CC)CCCC)CN2CC2C)c1=O (centres unmarked) [Composition 23]
Genotoxicity test result (overall) [1, 11]: non-genotoxic

CCCCCCCCCC(=O)OCC(CN1CC1C)OC(=O)NCCCCCCn1c(=O)n(CCCCCCNC(=O)OC(COC(=O)CCCCCCCCC)CN2CC2C)c(=O)n(CCCCCCNC(=O)OC(COC(=O)CCCCCCCCC)CN2CC2C)c1=O (centres unmarked) [Composition 25-2]
Rtkn GFP reporter induction level [3, 10]: 1.1
Rtkn GFP reporter induction level [3, 5]: 1.1
Rtkn GFP reporter induction level [3, 6]: 1.2
Rtkn GFP reporter induction level [3, 7]: 1.1
Rtkn GFP reporter induction level [3, 8]: 1.2
Rtkn GFP reporter induction level [3, 9]: 1.0
Bscl 2 GFP reporter induction level [4, 10]: 1.0
Bscl 2 GFP reporter induction level [4, 5]: 1.1
Bscl 2 GFP reporter induction level [4, 6]: 1.1
Bscl 2 GFP reporter induction level [4, 7]: 1.1
Bscl 2 GFP reporter induction level [4, 8]: 1.2
Bscl 2 GFP reporter induction level [4, 9]: 1.0
Genotoxicity test result (overall) [1, 11]: non-genotoxic

CCCCOCC(CN1CC1C)OC(=O)NCCCCCC/N=c1\oc(=O)n(CCCCCCNC(=O)OC(COCCCC)CN2CC2C)c(=O)n1CCCCCCNC(=O)OC(COCCCC)CN1CC1C (centres unmarked) [Composition 27]
Genotoxicity test result (overall) [1, 11]: non-genotoxic

CCCCOCC(CN1CC1(C)C)OC(=O)NCCCCCCn1c(=O)n(CCCCCCNC(=O)OC(COCCCC)CN2CC2(C)C)c(=O)n(CCCCCCNC(=O)OC(COCCCC)CN2CC2(C)C)c1=O (centres unmarked) [Compound. 15]
Rtkn GFP reporter induction level [3, 10]: 1.2
Rtkn GFP reporter induction level [3, 5]: 1.2
Rtkn GFP reporter induction level [3, 6]: 1.3
Rtkn GFP reporter induction level [3, 7]: 1.2
Rtkn GFP reporter induction level [3, 8]: 1.2
Rtkn GFP reporter induction level [3, 9]: 1.2
Bscl 2 GFP reporter induction level [4, 10]: 1.1
Bscl 2 GFP reporter induction level [4, 5]: 1.1
Bscl 2 GFP reporter induction level [4, 6]: 1.1
Bscl 2 GFP reporter induction level [4, 7]: 1.2
Bscl 2 GFP reporter induction level [4, 8]: 1.2
Bscl 2 GFP reporter induction level [4, 9]: 1.1
Genotoxicity test result (overall) [1]: non-genotoxic
